Measurements from patent US10324096B2, “Method of diagnosis, prognostic or treatment of neurodegenerative disease” (CENTRE NATIONAL DE LA RECHERCHE SCIENTIFIQUE, priority 2011, dated 2019).

Tests used:
[1] = molecular target: T1, human Tau protein (Homo sapiens, UniProt P10636); assay: Heparin/glycosaminoglycans ELISA competition assay towards human Tau protein (immobilized heparin); assay type: binding; conditions: FIG. 20
T1 construct: purchased R&D systems
Procedure: FIGS. 6A and 6B presents the higher capacity of GAGs extracted from hippocampus of AD to bind to human tau protein compared to GAGs from age-matched normal control brains. An ELISA test was used to compare the capacity of the different GAGs to bind to tau protein. The ELISA competing assay used immobilized heparin to bind au in the absence of competing GAGs. For the assay, GAGs (used from 0.1 to 1000 ng/mL) were added to the ELISA together with the tau protein (used at 100 ng/mL). After 1 h incubation at 4° C. plates were washed and remaining tau signal was recorded in the plate. X-axis: % Tau protein binding to total sulfated GAGs. EC50 stands for the GAG concentration necessary to inhibit 50% of the tau protein binding to immobilized heparin. Y-axis: Control (white histogram), AD (black histogram).
AD and control hippocampus extracted GAGs binding to human Tau protein (R&D systems) was evaluated by an ELISA based competition binding essay (Najjam et al., 1997). ELISA type 96 wells plates were coated with a 2 μg/mL BSA-heparin conjugate solution prepared as previously described (Najjam et al., 1997). After washing with PBS/0.05% Tween-20 (washing solution), wells were saturated with 3% BSA in PBS. […] Peroxidase activity was measured by the tetramethylbenzidine (TMB) detection kit (Pierce). […]

[2] = test system: zebrafish 3-OST-2 gene / abnormally phosphorylated Tau protein; assay: Morpholino knock-down of 3-OST-2 in hTAU-P301L zebrafish: hyperphosphorylated Tau; assay type: in vivo
Procedure: (§1) Morpholino oligonucleotides (MO) were designed to target the flanking region in the zebrafish 3-OST-2 gene in order to block the translation of the HS3ST2 mRNA: 5′-ATGGCATATAGGT TCCTGTCAAGCC . . . -3′. The morpholino antisense oligonucleotides were designed by Gene Tools (LLC One Summerton Way, Philomath, Oreg., USA). MO HS3ST2-ATG: 5′-[…]-3′.
The morpholinos were diluted to three different concentrations in Danieau buffer (58 mM NaCl, 0.7 mM KCl, 0.4 mM MgSO4, 0.6 mM Ca(NO3), 5 mM HEPES pH 7.6) and co-injected with 0.3 mg/mL dextran rhodamine (Molecular Probes, Eugene, Oreg., USA). Transgenic zebrafish embryos at one-cell or two-cell stage were microinjected with approximately 2 nL of 0.5 mM, or 1 mM morpholino solution using a pressure microinjector and a Zeiss stereomicroscope (Zeiss). […]
The embryos resulting from crossing between AB line and transgenic zebrafish carrying the P301L mutated Tau gene were screened for the DsRed fluorescent protein at 24 hpf and at 48 hpf the vitellus was removed. […] Protein concentration was measured according to the Bradford method.
Levels of P-Tau181, characteristic of taupathy associated pathologies, were measured using a combination of monoclonal antibody HT7 (which recognizes amino acids 159-163 in normal Tau and P-Tau) and biotinylated monoclonal antibody AT270 (which recognizes P-Tau containing the phosphorylated threonine 181 residue). […]

[3] = test system: transgenic hTAU-P301L zebrafish embryos; assay: Morpholino injection in transgenic hTAU-P301L zebrafish embryos: survival, anomalies; assay type: in vivo; conditions: morpholino 0.5 mM
Source text: Transgenic hTAU-P301L embryos with morpholino-mediated knock-down of the 3-OST-2 coding gene with SEQ ID NO: 5 and the non-injected embryos were screened on the intensity of DsRed fluorescent protein at 24 hpf. With morpholino-mediated knock-down of the 3-OST-2 coding gene in the transgenic hTAU-P301L zebrafish model the level of hyperphosphorylation in Tau protein was investigated. First of all, the obtained zebrafish embryos from the crossing between WT line and transgenic zebrafish carrying the P301L mutation in Tau protein were injected with different morpholino concentrations, respectively 0.3 mM, 0.5 mM and 1 mM. The numbers of living embryos were assessed at 24 hours after injection and survival rates were determined. […] Thus, this concentration was chosen for further analyses (FIG. 12).
as §1
The morpholinos were diluted to three different concentrations in Danieau buffer (58 mM NaCl, 0.7 mM KCl, 0.4 mM MgSO4, 0.6 mM Ca(NO3), 5 mM HEPES pH 7.6) and co-injected with 0.3 mg/mL dextran rhodamine (Molecular Probes, Eugene, Oreg., USA). […]

[4] = molecular target: T2, recombinant human tau protein (441-amino acid isoform), GSK-3 (Homo sapiens, UniProt P10636); assay: Phosphorylation of recombinant human Tau by GSK-3 in the presence of GAGs, heparin or oligosaccharides; assay type: biochemical; conditions: 3-O-sulfated groups in heparin
T2 construct: purchased Millipore
Procedure: Phosphorylation by glycogen synthase kinase 3 (GSK-3). Recombinant hTau41 (Millipore) was incubated for 0 to 24 h with […] of recombinant GSK3 (Millipore) in the presence or absence of 50 mg/ml of heparin, Arixtra®, or the heparin hexasaccharide non 3-O-sulfated. Phosphorylation assays (0.050 ml) were carried out at 30° C. and comprised 25 mM Tris-HCl, pH 7.4, 0.1 mM EGTA, 0.1 mM sodium orthovanadate, 2.5 mM PKI (a specific inhibitor of cyclic AMP-dependent protein kinase), protease inhibitors (0.5 mM phenylmethylsulfonyl fluoride, 5 mg/ml aprotinin, 5 mg/ml leupeptin,
and 0.5 mg/ml pepstatin), tau protein ([…]), 10 mM magnesium acetate, 2 mM [g-^32P]ATP (approximately 100 cpm/nmol) 5 units/ml recombinant reconstituted GSK3. Reactions were initiated with ATP and aliquots were removed at various times ranging from 10 min to 24 h and used for SDS-polyacrylamide gel electrophoresis and immunoblotting. Immunoblots were performed as described (Masato Hasegawa et al., J Bio Chem. (1997) 272 (52), pp. 33118-33124). Alternatively, incorporation of ^32P radioactivity was measured after adsorption to Whatman P-81 paper, as described. Heparin and extracted GAGs were included in the assays at 50 mg/ml.

[5] = test system: abnormally phosphorylated Tau in wild type differentiated SH-SY5Y cells; assay: Suppression of GAG sulfation by chlorate in differentiated SH-SY5Y cells, pTau western blot; assay type: cell-based, human; conditions: FIG. 8A, chlorate 50 mM
Procedure: Two cell types were used, (i) a wild type SH-SY5Y cells (mutation-independent model) in where abnormal phosphorylation is induced by oxidative stress and (ii) cells stably transfected with complete human tau protein having the mutation hTAU-P301L (mutation dependent model), characteristic of FTDP-17. As a consequence of the Tau mutation cells present high levels of abnormal phosphorylated Tau.
For the mutation dependent model cells were cultured as previously described (Schaeffer V et al., J Neurobiol 2006, July; 66(8):868-881). For the mutation independent model, human SH-SY5Y neuroblastoma cells were propagated in Dulbeco's modiced Eagle's medium (Gibco) with 5% fetal bovine serum and penicillin/streptomycin (5% CO2 and 95% air). For both models cells were plated at a density of 10^6 cells/cm^2 on 25 cm^2 dish and incubated under standard conditions for 24 h. […]
After harvesting, cells were and incubated in an ice bath for 5 min in a lysis buffer (50 mM Trus-HCl, 150 mM NaCl, 1% Triton X-100, 1 mM EDTA, 10 mM NaF, pH 8.0) containing 1 mM Na3VO4, and 0.1% protease inhibitor cocktail (Sigam). Lysates were centrifuged and proteins in the supernatants were quantified using the BCA protein assay kit (Pierce). […] Abnormally phosphorylated tau was detected by using anti-tau-pSer199 and anti-tau-pSer396 (Millipore) as described above. […] Results were expressed as a ratio of target protein to actine. […]

T1 sequence (P10636 1-441 isoform P10636-8): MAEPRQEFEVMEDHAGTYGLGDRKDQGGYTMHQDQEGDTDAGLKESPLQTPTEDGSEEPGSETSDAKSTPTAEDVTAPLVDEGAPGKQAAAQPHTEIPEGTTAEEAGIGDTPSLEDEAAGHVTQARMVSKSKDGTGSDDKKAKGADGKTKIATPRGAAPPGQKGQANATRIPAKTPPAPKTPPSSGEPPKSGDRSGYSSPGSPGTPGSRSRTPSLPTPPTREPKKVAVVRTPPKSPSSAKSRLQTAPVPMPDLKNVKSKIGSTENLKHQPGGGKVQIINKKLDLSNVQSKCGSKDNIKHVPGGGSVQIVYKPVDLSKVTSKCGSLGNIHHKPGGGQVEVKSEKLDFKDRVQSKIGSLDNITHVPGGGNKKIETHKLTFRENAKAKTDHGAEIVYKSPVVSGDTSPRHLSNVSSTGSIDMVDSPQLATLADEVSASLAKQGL
T2 sequence (P10636 1-441 isoform P10636-8): as above

fucoidan
competition with heparin for binding to human Tau protein (percentage of binding of test compound to hTau) [1]: able to compete with heparin for the binding to human Tau protein

5′-GGCTTGACAGGAACCTATATGCCAT-3′ (all phosphorodiamidate morpholino (PMO)) [MO HS3ST2-ATG]
accumulation of abnormally phosphorylated Tau protein in spinal cord ([2]; FIG. 13, anti-PHF-tau antibody clone AT8): diminishes the accumulation of abnormally phosphorylated Tau protein in spinal cord | accumulation of abnormal Tau hyperphosphorylation in vivo ([2]; decreasing expression of 3-OST-2 by morpholino): accumulation of abnormal Tau hyperphosphorylation was markedly decreased | major anomalies or deformities [3]: did not give major anomalies or deformities | survival rate ([3]; 24 hours post-injection): 67%

heparin
induction of abnormal Tau phosphorylation in vitro [4]: able to induce abnormal Tau phosphorylation in vitro

[O-][Cl+2]([O-])O [chlorate, sodium chlorate]
levels of abnormally phosphorylated Tau epitopes S199, T231, S262, S396 (pTau/β actine) [5]: Decreased levels of the abnormally phosphorylated Tau epitopes
